This is an account of results in US20210205336A1, “Storage-stable ready-to-use formulations of Tigecycline” (RK Pharma Solutions LLC, priority 2019, published 2021).

Where “and” joins values, the source holds several entries; their conditions need not be identical. Identical values can stand only once.

The data set is described as follows: Storage stability (purity and impurity profile) of ready-to-use tigecycline formulations at refrigeration, 2-8° C. The class given is physicochemical. On the set-up: Tricyclic Impurity / Max. Unk Imp. / Oxo Impurity / Epimer Impurity / Total Impurity: unit not given here. How it is done: As used herein, and unless otherwise specified, the term “storage-stable” refers to any tigecycline-containing composition or formulation having sufficient physical and chemical stability to allow storage at a convenient temperature, such as between about 0° C. and about 50° C., for a commercially reasonable period of time. The phrase “physical stability” refers to maintenance of colour or colourless state, dissolved oxygen level, head space oxygen level and particulate matter and the phrase “chemical stability” relates to formation of drug-related impurities in terms of total impurities, single maximum individual impurity, or maximum individual unknown impurity. For pharmaceutical products, stability is required for commercially relevant times after manufacturing, such as for about 6, 12, 18, 24, or 36 months, during which time a product is kept in its original packaging under specified storage conditions. Solution A and Solution B were then further nitrogen purged for another 30 minutes and closed tightly after nitrogen flushing and covered with black cover. Solution A and solution B were stored in refrigerator (2-8° C.) for 02 hours. 100 mg tigecycline was charged in solution B followed by the addition of solution B to solution A while the solution A was kept at ice bath (e.g., about 0° C.). Now, the total 100 ml solution in the infusion bag was nitrogen purged for another 15 minutes and sealed after nitrogen flushing and stored at refrigerator (2-8° C.). […] Calcium chloride 60 mg and sodium bisulfite 2.5 mg were dissolved in 3 ml 5% dextrose for injection. The volume was made up to 5 ml with 5% dextrose solution. The solution was then nitrogen purged until dissolved oxygen reached <0.1 mg/L. 50 mg tigecycline was transferred into an amber color vial and then the 5 ml of the above solution was poured in the vial under nitrogen. The headspace of the vial was flushed through with nitrogen and packed. The vials were stored at refrigeration condition. Calcium chloride 60 mg and sodium bisulfite 2.5 mg were dissolved in 3 ml 5% dextrose. pH was adjusted to 5.5-6.0 pH range using 0.1 M meglumine solution, as required. The volume was made up to 5 ml with 5% dextrose solution. The solution was then nitrogen purged until dissolved oxygen reached <0.1 mg/L. 50 mg tigecycline was transferred into an amber colour vial and then the 5 ml of the above solution was poured in the vial under nitrogen. The headspace of the vial was flushed through with nitrogen and packed. The vials were stored at refrigeration condition. Calcium chloride 60 mg and sodium bisulfite 2.5 mg were dissolved in 3 ml 5% dextrose. pH was adjusted to 4.5-5.0 pH range using 0.1 M meglumine solution, as required. The volume was made up to 5 ml with 5% dextrose solution. The solution was then nitrogen purged until dissolved oxygen reached <0.1 mg/L. 50 mg tigecycline was transferred into an amber colour vial and then the 5 ml of the above solution was poured in the vial under nitrogen. The headspace of the vial was flushed through with nitrogen and packed. The vials were stored at refrigeration condition. Calcium chloride 60 mg and sodium bisulfite 2.5 mg were dissolved in 3 ml 0.9% NaCl Solution. The volume was made up to 5 ml with 0.9% NaCl Solution. […]

[1] abbreviates: API (tigecycline before formulation).

Regarding `CN(C)c1cc(NC(=O)CNC(C)(C)C)c(O)c2c1C[C@H]1C[C@H]3[C@H](N(C)C)C(=O)/C(=C(\N)O)C(=O)[C@@]3(O)C(=O)C1=C2O` [API, (4S,4aS,5aR,12aS)-9-[2-(tert-butylamino)acetamido]4,7-bis(dimethylamino)-1,4,4a,5,5a,6,11,12a-octahydro-3,10,12,12a-tetrahydroxy-1,11dioxo-2-naphthacenecarboxamide], under setting [1], the “% Purity” value is 99.22% and 99.2% and 99.18%; the “Epimer Impurity” value was 0.5 and 0.48 and 0.49; the “Max. Unk Imp.” value is 0.05 and 0.04; the “Oxo Impurity” value came to 0.02. Further, the “Tricyclic Impurity” value under setting [1] is 0.03 and 0.04 and 0.05. In addition, the Purity (API (tigecycline before formulation), Tables 4A-9A) worked out at 99.3. The “Rel. Comp. B” value (API (tigecycline before formulation), in % (unit assumed)) was 0.01 and 0.02. Also, the “Total Impurity” value (API column, Day 1 (tigecycline before formulation)) is recorded as 0.82.
